Columns and labels:
Assay type in all cases: cell-based
[1] = test system: GABAAR (β3^HA) at the plasma membrane of CHO co-expressing human UT; assay: GABAAR internalization by immunofluorescence in CHO-UT-GABAAR (α2β3^HAγ2); conditions: hUII 10^−8 M, Iso 10^−4 M or both; 60 min (Figure 9 legend); mean ± SEM, 3 to 18 cells
Description: For double-immunofluorescence, non-permeabilized living CHO cells expressing UT and/or α2β3 ^HAγ2 GABAA receptors were washed two times in PBS, and incubated with monoclonal mouse anti-c-myc and rabbit polyclonal anti-HA (1∶200, Santa-cruz) for 1 h on ice in DMEM. […] After several rinses in PBS, cells were fixed in 4% paraformaldehyde at 4°C for 20 min, washed three times in PBS and then incubated at RT for 2 h with appropriate secondary antibodies, i.e. Alexa-488- and 594-conjugated donkey anti-mouse IgGs diluted 1∶300 (Invitrogen). After washing, coverslips were mounted in Eukitt (VWR International, Strasbourg, France).
(§1) All preparations were examined using a confocal laser-scanning microscope (Leica, Heidelberg, Germany) equipped with a Diaplan optical system, a UV laser (excitation wavelength 405 nm) and argon/krypton ion (excitation wavelengths 488/594 nm) laser.

[2] = test system: GABAAR (β3^HA) at the plasma membrane, no UT; assay: GABAAR internalization by immunofluorescence in CHO expressing GABAAR alone; conditions: hUII 10^−8 M, Iso 10^−4 M or both
Description: For double-immunofluorescence, non-permeabilized living CHO cells expressing UT and/or α2β3 ^HAγ2 GABAA receptors were washed two times in PBS, and incubated with monoclonal mouse anti-c-myc and rabbit polyclonal anti-HA (1∶200, Santa-cruz) for 1 h on ice in DMEM. Excess antibody was removed and cells were incubated with the different receptor agonists for 30 min at RT. After several rinses in PBS, cells were fixed in 4% paraformaldehyde at 4°C for 20 min, washed three times in PBS and then incubated at RT for 2 h with appropriate secondary antibodies, i.e. Alexa-488- and 594-conjugated donkey anti-mouse IgGs diluted 1∶300 (Invitrogen). After washing, coverslips were mounted in Eukitt (VWR International, Strasbourg, France).
as §1

human UT^c-myc = assay: Cell surface ELISA of UT^c-myc in CHO; conditions: hUII 10^−8 M, 30 min
Text: For UT epitope-tagged with HA (UT^HA), or c-myc (UT^c-myc), human UT receptor cDNA inserted into pcDNA3.1 (Ressource Center, MI, USA) was amplified and PCR products were subcloned using the EcoRI and XhoI sites of pCMV-HA or pCMV-c-myc. Mutant UT receptor cDNAs were constructed by oligonucleotide-directed mutagenesis (Expand High Fidelity PCR System; Roche) using the human UT receptor cDNA inserted into pcDNA3.1 as a template. Two sets of forward and reverse oligonucleotides were used (Table S2) to introduce stop codons in frame of Leu370, Phe351, Gly332 and Thr319 (to generate UT371, UT351, UT332 and UT319, respectively). PCR products were subcloned using the EcoRI and XhoI sites of pCMV-HA after digestion by the same restriction enzymes. Mutagenesis was confirmed by automated nucleotide sequencing.
Cells were plated at 50 000 cells/well in 96-well plates coated with 0.1 mg/ml poly-L-ornithine (Sigma-Aldrich). […] The cells were washed four times with PBS, a colorimetric alkaline phosphatase substrate was added (SuperSignal ELISA, Thermo scientific, Fisher) and the resulting color reaction was measured using a Viktor multilabel plate reader (PerkinElmer, Courtaboeuf, France). Background absorbance from samples transfected with non-tagged receptors or from cells without first antibodies were systematically measured. […]

[3] = test system: UT in native human astrocytes; assay: Flow cytometry of cell surface UT in native human astrocytes; conditions: hUII 10^−8 M, 30 min
Description: (§2) The human cell line from glioblastoma U87 was obtained from the American Type Culture Collection (LGC Standards, Molsheim, France). U87 cells were maintained in DMEM containing 10% FBS and 1% sodium pyruvate. NHA-Astrocytes (Lonza, Walkersville, MD, USA) were cultivated in DMEM culture medium supplemented with 2 mM glutamine, 5 mM HEPES, 1% non essential amino acids, 1% sodium pyruvate, B27, 25 ng/ml EGF, 1% of the antibiotic-antimycotic solution and 10% FBS. All cells were incubated at 37°C in a humidified atmosphere containing 5% CO2. Culture media were replaced every three days.
(§3) Human astrocytes and glioma U87 grown in 75-cm2 flasks until confluence were washed in PBS, detached and spun down at 4°C. The cell pellet was washed, re-suspended in PBS containing 1% BSA and incubated with 10 µg/mL non-immune rabbit IgGs for 30 min. […] Cells were incubated with an FITC- or PerCP-conjugated goat anti-rabbit secondary antibody (Santa Cruz) diluted 1∶200 and measured in the FL1 (530 nm) or FL3 (670 nm) channel. Cells were analyzed on a FACScalibur flow cytometer (BD Biosciences) operated with the Cell QuestTM software. Samples in which the primary antibodies were omitted were used as control to normalize mean fluorescence levels. […] Each histogram plot was recorded from at least 10,000 gated events.

UT in human U87 glioma = assay: Flow cytometry of cell surface UT in U87 glioma; conditions: hUII 10^−8 M, 30 min
Description: as §2, §3

Compound	GABAAR endocytosis [1]	GABAAR internalization without UT [2]	Effect on cell membrane amounts of UT^c-myc (human UT^c-myc)	UT at cell surface, human astrocytes [3]	UT at cell surface, U87 (UT in human U87 glioma)
O=C(O)C1=CCNCC1 [Iso, isoguvacine]	39.31±2.84%	remained able to provoke GABAAR removal from the plasma membrane	–	–	–
UII: Urotensin II, species not stated at that place (rUII in astrocytes, hUII in CHO and human cells)	–	–	failed to internalize UT in CHO and U87	led to UT loss from human astrocyte surface	failed to internalize UT in CHO and U87
ETPDCFWKYCV (disulfide) [hUII, human urotensin II, synthesized by solid phase methodology]	40.29±4.14%	failed to induce GABAAR internalization	without modifying cell membrane amounts of UT^c-myc	UT internalized in native astrocytes	still present at the cell surface in U87

Reference: PMC3341351, “Down-Regulation of GABAA Receptor via Promiscuity with the Vasoactive Peptide Urotensin II Receptor. Potential Involvement in Astrocyte Plasticity” (PLoS ONE, 2012)
